# Experimental data as given in ChEMBL document CHEMBL1944550, “In vitro and in silico studies on substrate recognition and acceptance of human PKMYT1, a Cdk1 inhibitory kinase” (Bioorg Med Chem Lett, 2012).
# Calls of active or inactive are those of the source. The calls are words filed in the database; no cut-off is given here. Residues, ends and D or L forms follow the SMILES beside them.
# Columns and labels:
# [1] = biological target: T1, Membrane-associated tyrosine- and threonine-specific cdc2-inhibitory kinase (Homo sapiens) (UniProt Q99640); test: Activity at full length human Myt1 expressed in human HEK293 cells assessed as Cdk1 phosphorylation at Try15 at 10 uM after 30 mins by fluorescence polarization immunoassay
# T1 sequence (whole entry): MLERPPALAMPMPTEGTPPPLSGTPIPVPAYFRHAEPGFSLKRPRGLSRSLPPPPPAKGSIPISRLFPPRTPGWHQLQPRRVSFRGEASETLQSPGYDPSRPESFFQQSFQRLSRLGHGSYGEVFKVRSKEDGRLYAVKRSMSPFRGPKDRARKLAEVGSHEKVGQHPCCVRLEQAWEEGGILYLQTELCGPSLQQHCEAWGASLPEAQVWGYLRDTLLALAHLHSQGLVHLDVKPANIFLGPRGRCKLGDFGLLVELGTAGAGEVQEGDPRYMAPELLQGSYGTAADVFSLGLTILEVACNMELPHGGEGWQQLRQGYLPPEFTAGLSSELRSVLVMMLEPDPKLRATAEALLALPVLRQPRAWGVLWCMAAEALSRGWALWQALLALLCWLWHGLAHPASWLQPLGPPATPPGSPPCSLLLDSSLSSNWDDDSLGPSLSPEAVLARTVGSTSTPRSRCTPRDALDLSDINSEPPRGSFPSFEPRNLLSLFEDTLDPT
# [2] = biological target: T1, Membrane-associated tyrosine- and threonine-specific cdc2-inhibitory kinase (Homo sapiens); test: Activity at full length human Myt1 expressed in human HEK293 cells assessed as Cdk1 phosphorylation at Thr14 at 10 uM after 30 mins by fluorescence polarization immunoassay
# [3] = biological target: T1, Membrane-associated tyrosine- and threonine-specific cdc2-inhibitory kinase (Homo sapiens); test: Activity at human Myt1 (75 to 362) expressed in Escherichia coli BL21 (DE3) cells assessed as Cdk1 phosphorylation at Try15 at 10 uM after 30 mins by fluorescence polarization immunoassay
# [4] = biological target: T1, Membrane-associated tyrosine- and threonine-specific cdc2-inhibitory kinase (Homo sapiens); test: Activity at human Myt1 (75 to 362) expressed in Escherichia coli BL21 (DE3) cells assessed as Cdk1 phosphorylation at Thr14 at 10 uM after 30 mins by fluorescence polarization immunoassay
# [5] = biological target: T2, Membrane-associated tyrosine- and threonine-specific cdc2-inhibitory kinase (Homo sapiens, UniProt Q99640); test: Activity at full length human Myt1 expressed in human HEK293 cells at 10 uM after 30 mins by fluorescence polarization immunoassay
# T2 sequence (Q99640 whole entry): T1 sequence (whole entry)
# [6] = biological target: T2, Membrane-associated tyrosine- and threonine-specific cdc2-inhibitory kinase; test: Competitive inhibition of human Myt1 by TR-FRET assay
Activity [1],Activity [2],Activity [3],Activity [4],IC50 [6],Molecule,EC50 [5]
inactive,inactive,inactive,inactive,–,H-QKIGEGTYGVVYKC-OH,–
inactive,inactive,inactive,inactive,–,H-EKIGEGTYGVVYKC-OH,–
–,–,–,–,7 nM,CCN(CC)CCOc1ccc(Nc2ncc3cc(-c4c(Cl)cccc4Cl)c(=O)n(C)c3n2)cc1 [PD-0166285],–

# Further lines, the molecule ahead of its results:
Molecule,Activity [1],Activity [2],Activity [3],Activity [4],IC50 [6],EC50 [5]
CC[C@H](C)[C@H](NC(=O)[C@H](CCCCN)NC(=O)[C@@H](N)CCC(N)=O)C(=O)NCC(=O)N[C@@H](CCC(=O)O)C(=O)NCC(=O)N[C@H](C(=O)N[C@@H](Cc1ccc(OP(=O)(O)O)cc1)C(=O)NCC(=O)N[C@H](C(=O)N[C@H](C(=O)N[C@@H](Cc1ccc(O)cc1)C(=O)N[C@@H](CCCCN)C(=O)N[C@@H](CS)C(=O)O)C(C)C)C(C)C)[C@@H](C)O (HELM PEPTIDE1{Q.K.I.G.E.G.T.[O=C([C@H](Cc1ccc(OP(=O)(O)O)cc1)N[*:1])[*:2]].G.V.V.Y.K.C}$$$$V2.0),inactive,inactive,inactive,inactive,–,18 nM
CC[C@H](C)[C@H](NC(=O)[C@H](CCCCN)NC(=O)[C@@H](N)CCC(N)=O)C(=O)NCC(=O)N[C@@H](CCC(=O)O)C(=O)NCC(=O)N[C@H](C(=O)N[C@@H](Cc1ccc(OP(=O)(O)O)cc1)C(=O)NCC(=O)N[C@H](C(=O)N[C@H](C(=O)N[C@@H](Cc1ccc(O)cc1)C(=O)N[C@@H](CCCCN)C(=O)N[C@@H](CS)C(=O)O)C(C)C)C(C)C)[C@@H](C)OP(=O)(O)O (HELM PEPTIDE1{Q.K.I.G.E.G.[C[C@@H](OP(=O)(O)O)[C@H](N[*:1])C(=O)[*:2]].[O=C([C@H](Cc1ccc(OP(=O)(O)O)cc1)N[*:1])[*:2]].G.V.V.Y.K.C}$$$$V2.0),inactive,inactive,inactive,inactive,–,–
CC[C@H](C)[C@H](NC(=O)[C@H](CCCCN)NC(=O)[C@@H](N)CCC(N)=O)C(=O)NCC(=O)N[C@@H](CCC(=O)O)C(=O)NCC(=O)N[C@H](C(=O)N[C@@H](Cc1ccc(O)cc1)C(=O)NCC(=O)N[C@H](C(=O)N[C@H](C(=O)N[C@@H](Cc1ccc(O)cc1)C(=O)N[C@@H](CCCCN)C(=O)N[C@@H](CS)C(=O)O)C(C)C)C(C)C)[C@@H](C)OP(=O)(O)O (HELM PEPTIDE1{Q.K.I.G.E.G.[C[C@@H](OP(=O)(O)O)[C@H](N[*:1])C(=O)[*:2]].Y.G.V.V.Y.K.C}$$$$V2.0),inactive,inactive,inactive,inactive,–,–
